Key:
[1] = molecular target: T1, Human PDGFRβ, cytoplasmic domain (GST-PDGFRβ) (Homo sapiens, UniProt P09619); experiment: Human PDGFRβ biochemical inhibition assay (off-chip Mobility Shift Assay)
T1 construct: made in house
Summary of the method: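 GST-tagged cytoplasmic domain (aa 557-1106) from baculovirus was incubated 1 h at room temperature with compound, CSKtide, ATP at Km and Mg²⁺ in HEPES buffer, pH 7.5. Phosphorylated and unphosphorylated peptide were separated by off-chip mobility shift, and the product ratio P/(P+S) gave percent inhibition.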

[2] = molecular target: T2, Human PDGFRα, cytoplasmic domain (GST-PDGFRα) (Homo sapiens, UniProt P16234); experiment: Human PDGFRα biochemical inhibition assay (off-chip Mobility Shift Assay)
T2 construct: made in house
T2 sequence (P16234 550-1089 T674I): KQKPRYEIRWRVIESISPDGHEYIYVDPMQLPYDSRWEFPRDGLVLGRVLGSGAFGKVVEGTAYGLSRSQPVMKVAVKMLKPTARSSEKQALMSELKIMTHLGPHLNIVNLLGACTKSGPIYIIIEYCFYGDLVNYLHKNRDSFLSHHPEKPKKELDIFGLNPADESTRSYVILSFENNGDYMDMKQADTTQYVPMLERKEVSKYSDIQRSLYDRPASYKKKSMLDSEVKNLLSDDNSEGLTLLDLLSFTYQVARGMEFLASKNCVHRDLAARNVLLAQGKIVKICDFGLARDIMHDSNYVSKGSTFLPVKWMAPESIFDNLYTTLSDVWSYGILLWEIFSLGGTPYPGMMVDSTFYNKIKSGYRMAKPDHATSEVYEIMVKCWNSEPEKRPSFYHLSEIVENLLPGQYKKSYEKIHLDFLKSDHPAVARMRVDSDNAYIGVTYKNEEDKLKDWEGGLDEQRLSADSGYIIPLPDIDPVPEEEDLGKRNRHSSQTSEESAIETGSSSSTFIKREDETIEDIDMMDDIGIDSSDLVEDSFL

T1 sequence (P09619 with tags, fused parts or gaps): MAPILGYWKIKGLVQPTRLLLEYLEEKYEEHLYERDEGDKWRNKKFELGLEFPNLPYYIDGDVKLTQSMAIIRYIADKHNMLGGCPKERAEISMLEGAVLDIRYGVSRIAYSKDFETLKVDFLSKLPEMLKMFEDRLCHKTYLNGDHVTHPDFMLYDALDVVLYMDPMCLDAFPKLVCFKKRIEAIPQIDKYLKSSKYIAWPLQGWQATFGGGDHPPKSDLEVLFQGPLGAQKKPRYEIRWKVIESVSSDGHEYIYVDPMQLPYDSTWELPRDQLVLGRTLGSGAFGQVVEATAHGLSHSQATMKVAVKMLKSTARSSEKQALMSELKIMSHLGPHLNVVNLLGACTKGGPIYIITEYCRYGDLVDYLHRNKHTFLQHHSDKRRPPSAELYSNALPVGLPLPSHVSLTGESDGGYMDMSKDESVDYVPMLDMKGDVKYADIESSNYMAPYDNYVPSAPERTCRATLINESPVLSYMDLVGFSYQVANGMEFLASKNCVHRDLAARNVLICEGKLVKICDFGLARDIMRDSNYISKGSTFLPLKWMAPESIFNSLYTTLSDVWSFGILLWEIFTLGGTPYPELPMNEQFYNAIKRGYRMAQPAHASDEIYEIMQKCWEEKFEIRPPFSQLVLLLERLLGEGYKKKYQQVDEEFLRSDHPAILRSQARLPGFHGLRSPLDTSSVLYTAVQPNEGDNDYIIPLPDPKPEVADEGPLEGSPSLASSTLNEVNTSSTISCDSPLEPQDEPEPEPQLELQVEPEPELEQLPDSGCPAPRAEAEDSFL

Row | IC50 [1] [nM] | IC50 [2] [nM] | Structure (SMILES)
1 | < 300 | < 300 | Cc1cc(C(=O)Nc2cccc([C@H](C)Nc3cnc4cnn(C)c4n3)c2)ccc1C(=O)OCCN1CCCC1 [Compound 268, 2-(pyrrolidin-1-yl)ethyl (S)-2-methyl-4-((3-(1-((1-methyl-1H-pyrazolo[3,4-b]pyrazin-6-yl)amino)ethyl)phenyl)carbamoyl) benzoate]
2 | < 300 | < 300 | CCn1cc(C(=O)Nc2ccc(F)c([C@H](C)Nc3cnc4cn(CC)nc4n3)c2)cn1 [Compound 310, (S)-1-ethyl-N-(3-(1-((2-ethyl-2H-pyrazolo[3,4-b]pyrazin-6-yl)amino)ethyl)-4-fluorophenyl)-1H-pyrazole-4-carboxamide]
3 | < 300 | < 300 | CCn1cc2ncc(N[C@@H](C)c3cc(NC(=O)c4cnc(OC)c(C)c4)ccc3F)nc2n1 [Compound 317, (S)-N-(3-(1-((2-ethyl-2H-pyrazolo[3,4-b]pyrazin-6-yl)amino)ethyl)-4-fluorophenyl)-6-methoxy-5-methylnicotinamide]
4 | < 300 | < 300 | Cc1ccc(C(=O)Nc2cccc([C@H](C)Nc3cnc4cnn(C)c4n3)c2)cc1C [Compound 234, (S)-3,4-dimethyl-N-(3-(1-((1-methyl-1H-pyrazolo[3,4-b]pyrazin-6-yl)amino)ethyl)phenyl)benzamide]
5 | < 300 | < 300 | CCc1ccc(C(=O)Nc2cccc([C@H](C)Nc3cnc4cnn(C)c4n3)c2)cn1 [Compound 207, (S)-6-ethyl-N-(3-(1-((1-methyl-1H-pyrazolo[3,4-b]pyrazin-6-yl)amino)ethyl)phenyl) nicotinamide]
6 | < 300 | < 300 | CCCOC(=O)c1ccc(C(=O)Nc2cccc([C@H](C)Nc3cnc4cnn(C)c4n3)c2)cc1C [Compound 254, propyl (S)-2-methyl-4-((3-(1-((1-methyl-1H-pyrazolo[3,4-b]pyrazin-6-yl)amino)ethyl)phenyl)carbamoyl)benzoate]
7 | < 300 | < 300 | Cc1cc2ncc(N[C@@H](C)c3cccc(NC(=O)c4ccc(OC(F)F)nc4)c3)nc2s1 [Compound 608, (S)-6-(difluoromethoxy)-N-(3-(1-((6-methylthieno[2,3-b]pyrazin-3-yl)amino)ethyl)phenyl)nicotinamide]
8 | < 300 | 300 to 1000 | C[C@H](Nc1cnc2[nH]cc(-c3cnn(C)c3)c2n1)c1cccc(NC(=O)c2ccc(C(F)(F)F)nc2)c1 [Compound 580, (S)-N-(3-(1-((7-(1-methyl-1H-pyrazol-4-yl)-5H-pyrrolo[2,3-b]pyrazin-2-yl)amino)ethyl)phenyl)-6-(trifluoromethyl) nicotinamide]
9 | < 300 | < 300 | CCn1cc2ncc(N[C@@H](C)c3cc(NC(=O)c4ccc(N5CCN(C)CC5)c(Cl)c4)ccc3F)nc2n1 [Compound 413, (S)-3-chloro-N-(3-(1-((2-ethyl-2H-pyrazolo[3,4-b]pyrazin-6-yl)amino)ethyl)-4-fluorophenyl)-4-(4-methylpiperazin-1-yl) benzamide]
10 | < 300 | < 300 | Cc1n[nH]c2ncc(N[C@@H](C)c3cccc(NC(=O)c4cnc(C(F)(F)F)s4)c3)nc12 [Compound 540, (S)-N-(3-(1-((3-methyl-1H-pyrazolo[3,4-b]pyrazin-5-yl)amino)ethyl)phenyl)-2-(trifluoromethyl)thiazole-5-carboxamide]
11 | 300 to 1000 | < 300 | CCn1cc2ncc(N[C@@H](C)c3cccc(NC(=O)c4cncc(OC)c4)c3)nc2n1 [Compound 279, (S)-N-(3-(1-((2-ethyl-2H-pyrazolo[3,4-b]pyrazin-6-yl)amino)ethyl)phenyl)-5-methoxynicotinamide]
12 | 300 to 1000 | < 300 | CCn1cc2ncc(N[C@@H](C)c3cccc(NC(=O)Cc4ccccc4)c3)nc2n1 [Compound 633, (S)-N-(3-(1-((2-ethyl-2H-pyrazolo[3,4-b]pyrazin-6-yl)amino)ethyl)phenyl)-2-phenylacetamide]
13 | < 300 | < 300 | C[C@H](Nc1cnc2cn[nH]c2n1)c1cccc(NC(=O)c2cncc(C(C)(C)F)c2)c1 [Compound 94, (S)-N-(3-(1-((1H-pyrazolo[3,4-b]pyrazin-6-yl)amino)ethyl)phenyl)-5-(2-fluoropropan-2-yl) nicotinamide]
14 | < 300 | < 300 | CCn1cc2ncc(N[C@@H](C)c3cc(NC(=O)Cc4cc(C)c(F)cn4)ccc3C)nc2n1 [Compound 687, (S)-N-(3-(1-((2-ethyl-2H-pyrazolo[3,4-b]pyrazin-6-yl)amino)ethyl)-4-methylphenyl)-2-(5-fluoro-4-methylpyridin-2-yl)acetamide]
15 | 300 to 1000 | < 300 | Cc1cncc(C(=O)Nc2cccc([C@H](C)Nc3cnc4ccoc4c3)c2)c1 [Compound 604, (S)-N-(3-(1-(furo[3,2-b]pyridin-6-ylamino)ethyl)phenyl)-5-methylnicotinamide]
16 | < 300 | < 300 | CCn1cc2ncc(N[C@@H](C)c3cc(NC(=O)c4ccc(CN5CCOCC5)c(C(F)(F)F)c4)ccc3F)nc2n1 [Compound 428, (S)-N-(3-(1-((2-ethyl-2H-pyrazolo[3,4-b]pyrazin-6-yl)amino)ethyl)-4-fluorophenyl)-4-(morpholinomethyl)-3-(trifluoromethyl)benzamide]
17 | < 300 | < 300 | CCn1cc2ncc(N[C@@H](C)c3cccc(NC(=O)c4ccc(CN5CC[C@@H](F)C5)c(C)c4)c3)nc2n1 [Compound 469, N-(3-((S)-1-((2-ethyl-2H-pyrazolo[3,4-b]pyrazin-6-yl)amino)ethyl)phenyl)-4-(((R)-3-fluoropyrrolidin-1-yl)methyl)-3-methylbenzamide]
18 | 300 to 1000 | < 300 | CCn1cc2ncc(N[C@@H](C)c3cc(NC(=O)Cc4cnc(C5CC5)c(F)c4)ccc3C)nc2n1 [Compound 708, (S)-2-(6-cyclopropyl-5-fluoropyridin-3-yl)-N-(3-(1-((2-ethyl-2H-pyrazolo[3,4-b]pyrazin-6-yl)amino)ethyl)-4-methylphenyl)acetamide]
19 | < 300 | < 300 | C[C@H](Nc1cnc2cnn(C)c2n1)c1cccc(NC(=O)c2cnc(C3CC3)s2)c1 [Compound 140, (S)-2-cyclopropyl-N-(3-(1-((1-methyl-1H-pyrazolo[3,4-b]pyrazin-6-yl)amino)ethyl)phenyl)thiazole-5-carboxamide]
20 | < 300 | < 300 | C[C@H](Nc1cnc2cnn(C)c2n1)c1cccc(NC(=O)c2ccc(C(F)(F)F)nc2)c1 [Compound 115, (S)-N-(3-(1-((1-methyl-1H-pyrazolo[3,4-b]pyrazin-6-yl)amino)ethyl)phenyl)-6-(trifluoromethyl)nicotinamide]
21 | < 300 | < 300 | CCn1cc2ncc(N[C@@H](C)c3cc(NC(=O)c4cnc(N5CCN(C)CC5)c(C(F)(F)F)c4)ccc3F)nc2n1 [Compound 445, (S)-N-(3-(1-((2-ethyl-2H-pyrazolo[3,4-b]pyrazin-6-yl)amino)ethyl)-4-fluorophenyl)-6-(4-methylpiperazin-1-yl)-5-(trifluoromethyl)nicotinamide]
22 | < 300 | < 300 | COc1cccc2ncc(N[C@@H](C)c3cccc(NC(=O)c4cncc(C)c4)c3)cc12 [Compound 27, (S)-N-(3-(1-((5-methoxyquinolin-3-yl)amino)ethyl)phenyl)-5-methylnicotinamide]
23 | 300 to 1000 | < 300 | CCn1cc2ncc(N[C@@H](C)c3cccc(NC(=O)Cc4ccccc4F)c3)nc2n1 [Compound 451, (S)-N-(3-(1-((2-ethyl-2H-pyrazolo[3,4-b]pyrazin-6-yl)amino)ethyl)phenyl)-2-(2-fluorophenyl)acetamide]
24 | ≥ 1000 | < 300 | CCn1cc2ncc(N[C@@H](C)c3cccc(NC(=O)c4ccc(CN(C)C)cc4)c3)nc2n1 [Compound 373, (S)-4-((dimethylamino)methyl)-N-(3-(1-((2-ethyl-2H-pyrazolo[3,4-b]pyrazin-6-yl)amino)ethyl)phenyl)benzamide]
25 | < 300 | < 300 | CCn1cc2ncc(N[C@@H](C)c3cc(NC(=O)c4cnc(C(F)(F)F)s4)ccc3F)nc2n1 [Compound 308, (S)-N-(3-(1-((2-ethyl-2H-pyrazolo[3,4-b]pyrazin-6-yl)amino)ethyl)-4-fluorophenyl)-2-(trifluoromethyl)thiazole-5-carboxamide]
26 | < 300 | < 300 | CCn1cc2ncc(N[C@@H](C)c3cccc(NC(=O)Cc4ccc(F)c(Cl)c4)c3)nc2n1 [Compound 631, (S)-2-(3-chloro-4-fluorophenyl)-N-(3-(1-((2-ethyl-2H-pyrazolo[3,4-b]pyrazin-6-yl)amino)ethyl)phenyl)acetamide]
27 | < 300 | < 300 | CCn1cc2ncc(N[C@@H](C)c3cccc(NC(=O)c4ccc(CN5CCC5)c(Cl)c4)c3)nc2n1 [Compound 486, (S)-4-(azetidin-1-ylmethyl)-3-chloro-N-(3-(1-((2-ethyl-2H-pyrazolo[3,4-b]pyrazin-6-yl)amino)ethyl)phenyl)benzamide]
28 | 300 to 1000 | < 300 | CCn1cc2ncc(N[C@@H](C)c3cccc(NC(=O)c4ccc(C(=O)N5CCN(C)CC5)c(C)c4)c3)nc2n1 [Compound 472, (S)-N-(3-(1-((2-ethyl-2H-pyrazolo[3,4-b]pyrazin-6-yl)amino)ethyl)phenyl)-3-methyl-4-(4-methylpiperazine-1-carbonyl)benzamide]
29 | < 300 | < 300 | C=C(C)c1ncc(C(=O)Nc2cccc([C@H](C)Nc3cnc4cnn(C)c4n3)c2)cc1C [Compound 216, (S)-5-methyl-N-(3-(1-((1-methyl-1H-pyrazolo[3,4-b]pyrazin-6-yl)amino)ethyl)phenyl)-6-(prop-1-en-2-yl) nicotinamide]
